Test results reported in PubChem BioAssay AID2060338 (Molecular Pharmacology Branch, DTP, NCI, 2025).
Values joined by “and” are separate entries in the source; they are usually repeats but may differ in a detail not shown here. Equal entries are not always repeated.

Test system: 556581-035-R-J1-PDC spheroids with HUVEC/MSC, viability
Experiment: Anticancer human tumor 556581-035-R-J1-PDC patient-derived ovarian carcinoma cell line growth inhibition [IpAb]
Settings: for viability, T/C: stronger effect = lower value
Outline: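 Spheroids of 60% malignant cells, 25% HUVEC and 15% MSC were exposed to targeted agents combined with ipatasertib or abemaciclib. Doses started at or near clinical Cmax (10 microM when unknown) and fell in half-log steps.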

[1] = curve of first compound, second compound 0.01 µM
[2] = curve of first compound, second compound 0.0316 µM
[3] = curve of first compound, second compound 0.1 µM
[4] = curve of first compound, second compound 0.316 µM
[5] = curve of first compound, second compound 1 µM
[6] = second compound 0.01 µM, first compound 0.0316 µM
[7] = second compound 0.01 µM, first compound 0.1 µM
[8] = second compound 0.01 µM, first compound 0.316 µM
[9] = second compound 0.01 µM, first compound 1 µM
[10] = second compound 0.01 µM, first compound 3.16 µM
[11] = second compound 0.01 µM, first compound 10 µM
[12] = second compound 0.0316 µM, first compound 0.0316 µM
[13] = second compound 0.0316 µM, first compound 0.1 µM
[14] = second compound 0.0316 µM, first compound 0.316 µM
[15] = second compound 0.0316 µM, first compound 1 µM
[16] = second compound 0.0316 µM, first compound 3.16 µM
[17] = second compound 0.0316 µM, first compound 10 µM
[18] = second compound 0.1 µM, first compound 0.0316 µM
[19] = second compound 0.1 µM, first compound 0.1 µM
[20] = second compound 0.1 µM, first compound 0.316 µM
[21] = second compound 0.1 µM, first compound 1 µM
[22] = second compound 0.1 µM, first compound 3.16 µM
[23] = second compound 0.1 µM, first compound 10 µM
[24] = second compound 0.316 µM, first compound 0.0316 µM
[25] = second compound 0.316 µM, first compound 0.1 µM
[26] = second compound 0.316 µM, first compound 0.316 µM
[27] = second compound 0.316 µM, first compound 1 µM
[28] = second compound 0.316 µM, first compound 3.16 µM
[29] = second compound 0.316 µM, first compound 10 µM
[30] = second compound 1 µM, first compound 0.0316 µM
[31] = second compound 1 µM, first compound 0.1 µM
[32] = second compound 1 µM, first compound 0.316 µM
[33] = second compound 1 µM, first compound 1 µM
[34] = second compound 1 µM, first compound 3.16 µM
[35] = second compound 1 µM, first compound 10 µM
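Also: spheroids exposed to compounds for 7 days before readout.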

C=CC(=O)N1CCN(c2nc(=O)n(-c3c(C)ccnc3C(C)C)c3nc(-c4c(O)cccc4F)c(F)cc23)C(C)C1 (configuration not stated) + CCN1CCN(Cc2ccc(Nc3ncc(F)c(-c4cc(F)c5nc(C)n(C(C)C)c5c4)n3)nc2)CC1
IC50 [1]: 7370 nM | IC50 [2]: 7290 nM | IC50 [3]: 7020 nM | IC50 [4]: 4110 nM | IC50 [5]: 143 nM | viability, T/C [6]: 102% | viability, T/C [7]: 108% | viability, T/C [8]: 105% | viability, T/C [9]: 119% | viability, T/C [10]: 91% | viability, T/C [11]: 35.2% | viability, T/C [12]: 91.2% | viability, T/C [13]: 107% | viability, T/C [14]: 104% | viability, T/C [15]: 107% | viability, T/C [16]: 108% | viability, T/C [17]: 29.7% | viability, T/C [18]: 94.1% | viability, T/C [19]: 109% | viability, T/C [20]: 103% | viability, T/C [21]: 124% | viability, T/C [22]: 94.4% | viability, T/C [23]: 30.1% | viability, T/C [24]: 85.3% | viability, T/C [25]: 93.3% | viability, T/C [26]: 108% | viability, T/C [27]: 106% | viability, T/C [28]: 56.4% | viability, T/C [29]: 28.1% | viability, T/C [30]: 50.1% | viability, T/C [31]: 50.2% | viability, T/C [32]: 51.6% | viability, T/C [33]: 42% | viability, T/C [34]: 34.2% | viability, T/C [35]: 17.6%

COc1c(OCCCN2CCOCC2)ccc2c3n(c(=NC(=O)c4cnc(N)nc4)nc12)CCN3 + CCN1CCN(Cc2ccc(Nc3ncc(F)c(-c4cc(F)c5nc(C)n(C(C)C)c5c4)n3)nc2)CC1
IC50 [1]: 14.7 nM | IC50 [2]: 18.8 nM | IC50 [3]: 21.9 nM | IC50 [4]: 21.2 nM | IC50 [5]: 12.4 nM | viability, T/C (second compound 0.01 µM, first compound 0.00316 µM): 76.3% | viability, T/C (second compound 0.01 µM, first compound 0.01 µM): 49.2% | viability, T/C [6]: 39.6% | viability, T/C [7]: 29.9% | viability, T/C [8]: 12.4% | viability, T/C [9]: 3.84% | viability, T/C (second compound 0.0316 µM, first compound 0.00316 µM): 77.2% | viability, T/C (second compound 0.0316 µM, first compound 0.01 µM): 53.8% | viability, T/C [12]: 43.9% | viability, T/C [13]: 32.4% | viability, T/C [14]: 11.2% | viability, T/C [15]: 2.33% | viability, T/C (second compound 0.1 µM, first compound 0.00316 µM): 84% | viability, T/C (second compound 0.1 µM, first compound 0.01 µM): 60.9% | viability, T/C [18]: 40.3% | viability, T/C [19]: 34.4% | viability, T/C [20]: 11.3% | viability, T/C [21]: 2% | viability, T/C (second compound 0.316 µM, first compound 0.00316 µM): 84.9% | viability, T/C (second compound 0.316 µM, first compound 0.01 µM): 63.2% | viability, T/C [24]: 41.2% | viability, T/C [25]: 29.9% | viability, T/C [26]: 7.71% | viability, T/C [27]: 3.06% | viability, T/C (second compound 1 µM, first compound 0.00316 µM): 59.9% | viability, T/C (second compound 1 µM, first compound 0.01 µM): 51.7% | viability, T/C [30]: 40.4% | viability, T/C [31]: 29.8% | viability, T/C [32]: 12% | viability, T/C [33]: 2.02%

C=CCn1c(=O)c2cnc(Nc3ccc(N4CCN(C)CC4)cc3)nc2n1-c1cccc(C(C)(C)O)n1 + CCN1CCN(Cc2ccc(Nc3ncc(F)c(-c4cc(F)c5nc(C)n(C(C)C)c5c4)n3)nc2)CC1
IC50 [1]: 233 nM | IC50 [2]: 225 nM | IC50 [3]: 211 nM | IC50 [4]: 177 nM | IC50 [5]: 36.8 nM | viability, T/C [6]: 96.9% | viability, T/C [7]: 81.9% | viability, T/C [8]: 32.1% | viability, T/C [9]: 35.9% | viability, T/C [10]: 42% | viability, T/C [11]: 44.4% | viability, T/C [12]: 102% | viability, T/C [13]: 78.4% | viability, T/C [14]: 27.8% | viability, T/C [15]: 37.2% | viability, T/C [16]: 51.3% | viability, T/C [17]: 36.3% | viability, T/C [18]: 83.3% | viability, T/C [19]: 66.3% | viability, T/C [20]: 31.8% | viability, T/C [21]: 40.9% | viability, T/C [22]: 50.6% | viability, T/C [23]: 41.4% | viability, T/C [24]: 91.4% | viability, T/C [25]: 60.7% | viability, T/C [26]: 29.2% | viability, T/C [27]: 38.1% | viability, T/C [28]: 48.1% | viability, T/C [29]: 40.7% | viability, T/C [30]: 54.5% | viability, T/C [31]: 41.1% | viability, T/C [32]: 32.9% | viability, T/C [33]: 31.5% | viability, T/C [34]: 42.5% | viability, T/C [35]: 13.9%

C=CCn1c(=O)c2cnc(Nc3ccc(N4CCN(C)CC4)cc3)nc2n1-c1cccc(C(C)(C)O)n1
viability, T/C (compound 0.0316 µM): 102% and 109% | viability, T/C (compound 0.1 µM): 72.1% and 83.2% | viability, T/C (compound 0.316 µM): 28.2% and 29.8% | viability, T/C (compound 1 µM): 39.7% and 41.9% | viability, T/C (compound 3.16 µM): 50.2% and 42% | viability, T/C (compound 10 µM): 36.3% and 35.7% | IC50 (curve of compound): 214 nM and 230 nM

Cc1nc(NC(=O)N2CCCC2C(N)=O)sc1-c1ccnc(C(C)(C)C(F)(F)F)c1 (configuration not stated) + CCN1CCN(Cc2ccc(Nc3ncc(F)c(-c4cc(F)c5nc(C)n(C(C)C)c5c4)n3)nc2)CC1
IC50 [1]: 388 nM | IC50 [2]: 274 nM | IC50 [3]: 401 nM | IC50 [4]: < 31.6 nM | IC50 [5]: < 31.6 nM | viability, T/C [6]: 87.3% | viability, T/C [7]: 65.6% | viability, T/C [8]: 47.3% | viability, T/C [9]: 39.6% | viability, T/C [10]: 33.2% | viability, T/C [11]: 10.3% | viability, T/C [12]: 70.4% | viability, T/C [13]: 58.8% | viability, T/C [14]: 42.9% | viability, T/C [15]: 42% | viability, T/C [16]: 27.5% | viability, T/C [17]: 9.58% | viability, T/C [18]: 67.8% | viability, T/C [19]: 62% | viability, T/C [20]: 52.7% | viability, T/C [21]: 39.5% | viability, T/C [22]: 25.2% | viability, T/C [23]: 7.2% | viability, T/C [24]: 46.7% | viability, T/C [25]: 47.9% | viability, T/C [26]: 40.8% | viability, T/C [27]: 36.7% | viability, T/C [28]: 31.2% | viability, T/C [29]: 11.3% | viability, T/C [30]: 48.9% | viability, T/C [31]: 37.9% | viability, T/C [32]: 39% | viability, T/C [33]: 30.2% | viability, T/C [34]: 20.2% | viability, T/C [35]: 9%
